In patent US20240182472A1, “INDAZOLE PYRIDONE COMPOUNDS AND USES THEREOF” (Bluejay Therapeutics, Inc., priority 2022, published 2024):
Read-outs that look alike come from different tables or passages of the source.

Experiments:
[1] = cited from earlier work
[2] = monkeys, starting at 4 weeks, more pronounced effect at 13 weeks; cited from earlier work
HBV S-antigen secretion = assay: HBsAg assay (HepG2 HBV S-antigen secretion biological assay); type: cell-based; details: Hepatitis B virus, HepG2.2.15, 72 h, read-out: EC50, HBV S-antigen secretion
Experimental: HepG2.2.15 cells were grown in flasks microscopically and seeded into 96-well plates at a concentration of 6.0×10^4 cells/well and incubated at 37° C., 5% CO2 overnight.
Source plate preparation. The stock concentration of reference compound and test compounds is 20 mM. Firstly, manually diluted the compound to obtain the first concentration points of 10 μM and 200 μM, respectively. Then a 3-fold, 8 points serial dilution is performed to obtain the 200× source plate.
Source plate compounds were pipetted as follows: 3 μL 200× source plate compounds into sterile 2 mL 96 well plate which contain 297 μL 2% FBS Medium, mix well and transfer 100 μL/well to corresponding cell culture plates. Therefore, the test conditions of the final compounds is 1 μM initiation, 3-fold serial dilution, and 8 concentration points in duplicate.
Incubate the cells at 37° C., 5% CO2 for three days.
24 hours post-seeding, the cells were treated with 200 μl/well of media containing serially diluted compounds in DMSO. DMSO alone was used as the no drug control. The final DMSO concentration in all wells was 0.5%.
The HBsAg kit (Auto Biology-CL 0310) was used to determine the level of secreted HBVsAg. The HBSAg assay was performed as follows: • a) Blance the ELISA kit at room temperature for 30 minutes. • b) Add 50 μL standard solution, sample, positive and negative control to each well of the microplate in the kit. • c) Add 50 μL HBsAg enzyme conjugate to each well. • d) Attach the plate membrane, oscillate for 60 seconds, and incubate at 37° C. for 60 minutes. • e) Add 350 μL washing buffer to each well, shake slightly, discard liquid, repeat 6 times. Then pat 5 times on an absorbent paper towel to dry the hole. • f) Add 50 μL mixture of reagent A and B to each well. Oscillate the microplate for 10 seconds. • g) Cover the plate membrane and incubate at room temperature for 10 minutes. Read the luminescent signal using Biotek-Synergy 2.
Compounds inhibition against HBsAg at different concentrations are calculated by the following formula:
Inhibition %=(1−value of sample/ave. value of control)×100
50% effective concentrations (EC50) and were calculated with the GraphPad Prism software.

OATP1B1 = biological target: T1, OATP1B1 (Homo sapiens, UniProt Q9Y6L6); type: in vitro ADME
T1 construct: host or cells: HEK293 (HEK293-OATP1B1), stably transfected
T1 sequence (Q9Y6L6 1-691): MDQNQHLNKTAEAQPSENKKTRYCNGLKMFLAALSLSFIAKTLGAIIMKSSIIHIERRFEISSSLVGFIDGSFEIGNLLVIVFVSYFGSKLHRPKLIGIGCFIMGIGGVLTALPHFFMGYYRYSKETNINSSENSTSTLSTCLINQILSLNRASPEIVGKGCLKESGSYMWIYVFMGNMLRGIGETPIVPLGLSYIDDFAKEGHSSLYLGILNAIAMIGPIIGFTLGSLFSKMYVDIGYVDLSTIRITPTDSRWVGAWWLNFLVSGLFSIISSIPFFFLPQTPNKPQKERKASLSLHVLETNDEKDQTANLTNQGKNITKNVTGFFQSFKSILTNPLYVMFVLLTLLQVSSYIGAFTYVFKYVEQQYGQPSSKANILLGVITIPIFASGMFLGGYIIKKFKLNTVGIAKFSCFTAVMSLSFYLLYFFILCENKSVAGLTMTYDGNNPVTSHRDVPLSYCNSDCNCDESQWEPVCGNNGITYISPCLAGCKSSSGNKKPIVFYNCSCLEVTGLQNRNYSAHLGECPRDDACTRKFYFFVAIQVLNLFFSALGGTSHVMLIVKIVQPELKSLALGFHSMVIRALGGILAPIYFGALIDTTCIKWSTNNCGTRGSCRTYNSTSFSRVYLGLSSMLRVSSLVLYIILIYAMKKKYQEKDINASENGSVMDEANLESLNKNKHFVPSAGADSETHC
Experimental: (§1) The OATP1B1 and OATP1B3 substrate assays were conducted at Wuxi utilizing the human embryonic kidney cell line, HEK293, stably transfected with human transporter genes. The identification of potential transporter substrates are achieved by measuring the Uptake Fold values in the transfected HEK293-OATP1B1 and OATP1B3 cells line and the HEK293-MOCK cell line in the Presence and Absence of positive inhibitors.
(§2) The objective of this study was to determine whether Compound I.2 and Compound I.6 are potential OATP1B1 and OATP1B3 uptake substrates.
(§3) HEK-293 cells stably expressing the human OATP1B1 and OATP1B3 transporter and the HEK293-MOCK cell line were licensed from GenoMembrane (Kanagawa, Japan). The culture medium was DMEM (HEK293-OATP1B3 cells were maintained in DMEM/F12) supplemented with 10.0% FBS, 500 μg/mL G418 sulfate solution, 100 U/mL penicillin-G and 100 μg/mL streptomycin. Cells were incubated in 5.0% CO2 at 37.0° C. with saturated humidity. HEK293-OATP1B1 (Passage: 19), OATP1B3 (Passage: 19), and HEK293-MOCK (Passage: 14 and 16) were grown to 80.0 to 90.0% confluence in the culture flask. Trypsin/EDTA (0.05%/0.02%, w/v) was added to detach the cells from the flask. The cells were seeded onto 96-well plates with a density of 5.00×10^4 cells/well, and then incubated for 24 hours in 5.0% CO2 at 37.0° C. with saturated humidity before being used in the uptake study.
(§4) Pre-incubation: Cell culture medium was removed from the 96-well plates seeded with either HEK293-OATP1B1 and OATP1B3 or HEK293-MOCK cells, followed by rinsing the cells twice with the warm (37.0° C.) Transport Buffer. The cells were then pre-incubated for 30 min with the Transport Buffer in the Presence and Absence of positive inhibitors in 5.0% CO2 at 37.0° C. with saturated humidity.
(§5) Uptake incubation: At the end of the pre-incubation, the buffers were removed and the cells were treated with Compound I.6 or Compound I.2 at 0.100 or 1.00 μM in the presence and absence of positive inhibitor. In separate wells, the marker substrate for transporter cells were incubated with dosing solution (Table A), all treatments were conducted in triplicate wells in 5.0% CO2 at 37.0° C. with saturated humidity.
(§6) Cell lysing: At the end of the incubations, dosing solution was removed. After removing the remaining dosing solution, the cell was rinsed three times with ice-cold Transport Buffer (2.0-8.0° C.) followed by adding 100 μL cold acetonitrile:methanol (95: 5, v: v) containing internal standard into the cells treated with test compound for bioanalysis. For the cells dosed with positive control, the cells were added 100 μL cold acetonitrile:methanol (95:5, v: v) containing internal standard for bioanalysis. All samples were gently shaken for 30 min. Then for test compound and positive control, 75 μL of the cell lysate was mixed with 75 μL of Transport Buffer and 150 μL of cold acetonitrile:methanol (95:5, v:v) containing internal standard. The lysis sample was centrifuged for 10 min at 3220×g before the supernatant, defined as the terminal sample, was taken for the determination of the intracellular uptake of the test compounds or substrate by LC-MS/MS.
(§7) Uptake Fold was calculated using equation (1)

OATP1B3 = biological target: T2, OATP1B3 (Homo sapiens, UniProt Q9NPD5); type: in vitro ADME
T2 construct: host or cells: HEK293 (HEK293-OATP1B3), stably transfected
T2 sequence (Q9NPD5 1-702): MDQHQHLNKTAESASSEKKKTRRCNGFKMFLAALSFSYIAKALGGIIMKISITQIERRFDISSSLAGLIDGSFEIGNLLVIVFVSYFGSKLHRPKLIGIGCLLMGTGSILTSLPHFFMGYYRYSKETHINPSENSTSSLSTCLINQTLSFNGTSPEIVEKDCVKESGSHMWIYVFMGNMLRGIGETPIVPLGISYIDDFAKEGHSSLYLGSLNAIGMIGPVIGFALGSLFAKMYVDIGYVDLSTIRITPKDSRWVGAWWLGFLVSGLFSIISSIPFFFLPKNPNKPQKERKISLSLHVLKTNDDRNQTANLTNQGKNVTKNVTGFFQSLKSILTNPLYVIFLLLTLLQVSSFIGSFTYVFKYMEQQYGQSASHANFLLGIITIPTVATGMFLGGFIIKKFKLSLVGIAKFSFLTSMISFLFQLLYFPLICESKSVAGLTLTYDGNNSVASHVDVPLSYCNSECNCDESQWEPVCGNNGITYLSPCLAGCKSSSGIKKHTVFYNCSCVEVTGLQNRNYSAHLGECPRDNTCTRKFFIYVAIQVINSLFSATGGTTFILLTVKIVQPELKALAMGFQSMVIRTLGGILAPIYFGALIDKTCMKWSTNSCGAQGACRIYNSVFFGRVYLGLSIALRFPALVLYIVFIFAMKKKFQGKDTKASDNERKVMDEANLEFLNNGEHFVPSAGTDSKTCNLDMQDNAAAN
Experimental: as §1, §2, §3, §4, §5, §6, §7

SMILES	change from baseline of rat caudal nerve NCV, digital NCV, cauda equina latency, digital latency, tibial nerve latency ([1]; 13 weeks, daily doses 20 MPK/day and 60 MPK/day)	nerve conduction velocity (NCV) of several peripheral nerves ([1]; rats, starting at 4 weeks, more pronounced effect at 13 weeks)	nerve conduction velocity (NCV) of several peripheral nerves [2]	EC50 (HBV S-antigen secretion)	Uptake ratio (OATP1B1; 0.1 μM)	Uptake ratio (OATP1B1; 1 μM)	Uptake ratio (OATP1B3; 0.1 μM)	Uptake ratio (OATP1B3; 1 μM)
COCCOc1cc2c(cc1COC)-c1cc(=O)c(C(=O)O)cn1N1[C@@H]2CCC1(C)C [GS-8873]	greater than 20%	prolong the nerve conduction velocity	prolong the nerve conduction velocity	–	–	–	–	–
CC(C)(C)[C@@H]1Cn2nc3c(OCCCCCCC(=O)O)cccc3c2-c2cc(=O)c(C(=O)O)cn21 [I.2, (R)-6-(tert-butyl)-10-((6-carboxyhexyl)oxy)-2-oxo-6,7-dihydro-2H-pyrido[2′,1′:3,4]pyrazino[1,2-b]indazole-3-carboxylic acid]	–	–	–	6.5 ± 2.5 nM	2.87	1.10	2.23	2.34
CC(C)(C)[C@@H]1Cn2nc3c(OCCCCCCCC(=O)O)cccc3c2-c2cc(=O)c(C(=O)O)cn21 [I.6, (R)-6-(tert-butyl)-10-((7-carboxyheptyl)oxy)-2-oxo-6,7-dihydro-2H-pyrido[2′,1′:3,4]pyrazino[1,2-b]indazole-3-carboxylic acid]	–	–	–	2.6 ± 0.6 nM	11.5	18.2	1.74	4.9
